# Target: HER2YVMA (Homo sapiens, UniProt P04626, INS775YVMA)
# Test: HER2 signaling (pHER2) in Hek293-HER2YVMA cells
# Format: cell-based
# Set-up: expressed in transfected cells; host or cells: HEK293 (pool), Ba/F3 (clones), BEAS2B (clones); lentiviral vector pCDH-CMV-MCS-EF1-Neo
# Conditions: 1.5 hr compound, 1% FBS, read-out: HEKYVMA pHER2 EC50
# Procedure: Cell culture, plasmid cloning, and lentiviral transduction were carried out according to standard procedures. The Human HER2 cDNA construct in pCMV6-Entry for the HER2 wildtype (WT) expression was obtained from Origene. The HER2 cDNA including the 12-nucleotide insertion corresponding to YVMA insertion (HER2YVMA) was codon optimized, synthesized and cloned by GenScript (Piscataway, NJ) in pcDNA3.1. The lentiviral constructs expressing HER2YVMA and HER2 WT were sub-cloned using PCR at System Biosciences (SBI, Mountainview, CA) into lentiviral vectors pCDH-CMV-MCS-EF1-Neo and lentiviral particles were generated.
# Engineered lines expressing HER2YVMA and HER2 WT were prepared in HEK293 (human embryonic kidney cells), Ba/F3 (Interleukin 3 (IL3)-dependent murine pro B cell line), and BEAS2B (primary immortalized human bronchial epithelial cell line). Ba/F3, BEAS2B, and HEK293 cells were obtained from the American Type Culture Collection (ATCC, Manassas, VA). Parental Ba/F3 cells were grown in suspension in complete RPMI 1640 supplemented with 10% FBS and 1% P/S and 10 ng/ml interleukin 3 (IL3, Sigma-Aldrich). Hek293 and BEAS2B cells were grown as monolayers in DMEM supplemented with 10% FBS and 1% P/S. All cells were maintained and propagated in a humidified 5% CO2 incubator at 37° C.
# To generate Ba/F3, BEAS2B, and Hek-293 cells engineered with lentivirus to express HER2 WT or HER2YVMA, the cells were transduced with lentiviruses at multiplicity of infection (MOI) of 1 or 10; transduced cells were selected and maintained with G418 ([…]) (Geneticin, Life Technologies, Carlsbad, CA). Ba/F3 engineered cells were subjected to gradual withdrawal of interleukin 3 (IL-3, Sigma-Aldrich). After selection, IL3 independent Ba/F3 HER2YVMA, and BEAS2B HER2YVMA cells were cloned by limiting dilution. Hek293 HER2YVMA cells were used as pool. HER2 and phospho HER2 levels were confirmed by flow cytometery and immunoassay (MSD, Meso-Scale Discovery, Rockville, Maryland).
# HER2 signaling was assessed in BT474 and N87 cell lines which endogenously overexpress the HER2 wildtype (WT) protein, in NCI-H1781 cells which endogenously expresses a HER2 mutant protein containing a VC insertion in the kinase domain (HER2VC or G776delinsVC), and in engineered cell lines transduced to express the Her2 mutant protein containing the YVMA insertion (Hek293-HER2YVMA and BEAS2B-HER2YVMA).
# BT474, N87, and NCI-H1781 were plated in 96-well tissue-culture treated plates (Corning Costar, Sigma-Aldrich) in full media and incubated overnight. Hek293-HER2YVMA and BEAS2B-HER2YVMA cells were plated in 96-well poly-D-lysine treated plates (BD Bioscience, San Jose, CA). For treatment with test compounds, the media was replaced with corresponding low serum media (1% FBS) containing test compound at 1.1, 0.37, 0.12, 0.041, 0.014, 0.005, 0.0014, 0.0005 μM or DMSO control (0.1%). Cells were incubated with compound for 1.5 hr at 37° C. After compound treatment, the media was removed and cells were lysed for 30 min on ice in complete MSD lysis buffer (prepared using MSD base lysis buffer (Meso-Scale Discovery) supplemented with cOmplete, EDTA-free Protease inhibitor cocktail (Roche), Phosphatase Inhibitor Cocktails 2 and 3 (Sigma-Aldrich), and 1 mM PMSF (Sigma-Aldrich)). Lysates were stored at −70° C. until further analysis.
# HER2 signaling was evaluated using phospho (Tyr1248)/total ErbB2 whole cell lysate MSD plates (Meso-Scale Discovery, Gaithersburg, MD). The phospho HER2 signal was normalized to total HER2 for each sample; results are reported as % DMSO control. The normalized data was fitted using a sigmoidal curve analysis program (Graph Pad Prism version 6) with variable Hill slope to determine EC50 values.
# The HER2 signaling results are provided in Table 4, under columns titled “BT474-pHER2 EC50”, “N87-pHER2 EC50”, and “NCI-H1781-pHER2 EC50”. […]
# Sequence of HER2YVMA (P04626 with tags, fused parts or gaps INS775YVMA): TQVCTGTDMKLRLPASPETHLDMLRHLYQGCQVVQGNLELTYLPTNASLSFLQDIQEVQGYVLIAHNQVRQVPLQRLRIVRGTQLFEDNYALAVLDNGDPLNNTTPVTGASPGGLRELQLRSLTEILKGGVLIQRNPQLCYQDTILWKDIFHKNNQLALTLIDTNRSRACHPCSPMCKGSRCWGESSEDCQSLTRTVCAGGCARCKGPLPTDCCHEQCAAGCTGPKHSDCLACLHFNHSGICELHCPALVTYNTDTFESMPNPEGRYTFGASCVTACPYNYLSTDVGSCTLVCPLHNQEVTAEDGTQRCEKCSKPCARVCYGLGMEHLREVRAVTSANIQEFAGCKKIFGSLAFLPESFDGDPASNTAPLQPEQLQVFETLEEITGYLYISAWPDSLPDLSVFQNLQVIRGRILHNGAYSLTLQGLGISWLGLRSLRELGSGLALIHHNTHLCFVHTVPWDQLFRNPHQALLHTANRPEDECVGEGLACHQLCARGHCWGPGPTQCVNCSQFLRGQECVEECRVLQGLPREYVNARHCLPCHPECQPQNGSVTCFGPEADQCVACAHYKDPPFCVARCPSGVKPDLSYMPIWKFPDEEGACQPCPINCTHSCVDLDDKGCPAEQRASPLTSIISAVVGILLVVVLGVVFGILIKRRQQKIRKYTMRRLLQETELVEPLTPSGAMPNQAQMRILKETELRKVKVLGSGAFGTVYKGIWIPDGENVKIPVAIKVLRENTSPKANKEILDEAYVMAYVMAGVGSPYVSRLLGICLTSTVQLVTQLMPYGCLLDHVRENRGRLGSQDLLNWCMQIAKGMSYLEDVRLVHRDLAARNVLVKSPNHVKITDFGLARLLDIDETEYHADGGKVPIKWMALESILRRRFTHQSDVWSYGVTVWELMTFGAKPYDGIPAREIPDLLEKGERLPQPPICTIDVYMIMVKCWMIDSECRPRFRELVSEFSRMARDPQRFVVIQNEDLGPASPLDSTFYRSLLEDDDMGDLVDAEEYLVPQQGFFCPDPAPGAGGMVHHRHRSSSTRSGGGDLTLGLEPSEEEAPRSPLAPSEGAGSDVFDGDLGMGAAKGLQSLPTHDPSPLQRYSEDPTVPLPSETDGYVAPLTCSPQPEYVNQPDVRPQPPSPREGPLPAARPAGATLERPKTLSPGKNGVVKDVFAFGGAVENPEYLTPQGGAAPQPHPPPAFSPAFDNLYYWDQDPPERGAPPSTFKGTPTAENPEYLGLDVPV
compound,measurement,value
"Cc1cc(Nc2ncnc3sc4c(c23)CCN(C(=O)/C=C/CN(C)C)C4)ccc1Oc1ccc2scnc2c1 [Compound 107, (E)-1-(4-((4-(benzo[d]thiazol-5-yloxy)-3-methylphenyl)amino)-5,8-dihydropyrido[4′,3′:4,5]thieno[2,3-d]pyrimidin-7(6H)-yl)-4-(dimethylamino)but-2-en-1-one]",EC50,< 100 nM
"Cc1ccc(Oc2ccc(Nc3ncnc4sc5c(c34)CN(C(=O)/C=C/CN(C)C)CC5)cc2C)cn1 [Compound 108, (E)-4-(Dimethylamino)-1-(4-((3-methyl-4-((6-methylpyridin-3-yl)oxy)phenyl)amino)-7,8-dihydropyrido[3′,4′:4,5]thieno[2,3-d]pyrimidin-6(5H)-yl)but-2-en-1-one]",EC50,< 100 nM
"Cc1cc(Nc2ncnc3sc4c(c23)CCN(C(=O)/C=C/CN(C)C)C4)ccc1Oc1ccc2nccn2c1 [Compound 109, (E)-4-(dimethylamino)-1-(4-((4-(imidazo[1,2-a]pyridin-6-yloxy)-3-methylphenyl)amino)-5,6-dihydropyrido[4′,3′:4,5]thieno[2,3-d]pyrimidin-7(8H)-yl)but-2-en-1-one]",EC50,< 100 nM
"Cc1cn2ccc(Oc3ccc(Nc4ncnc5sc6c(c45)CCN(C(=O)/C=C/CN(C)C)C6)cc3C)cc2n1 [Compound 110, (E)-4-(dimethylamino)-1-(4-((3-methyl-4-((2-methylimidazo[1,2-a]pyridin-7-yl)oxy)phenyl)amino)-5,8-dihydropyrido[4′,3′:4,5]thieno[2,3-d]pyrimidin-7(6H)-yl)but-2-en-1-one]",EC50,100 to 350 nM
"Cc1cc(Nc2ncnc3sc4c(c23)CN(C(=O)/C=C/CN(C)C)C4)ccc1Oc1ccc2ncnn2c1 [Compound 111, (E)-1-(4-((4-([1,2,4]Triazolo[1,5-a]pyridin-6-yloxy)-3-methylphenyl)amino)-5H-pyrrolo[3′,4′:4,5]thieno[2,3-d]pyrimidin-6(7H)-yl)-4-(dimethylamino)but-2-en-1-one]",EC50,100 to 350 nM
Cc1ccc(Oc2ccc(Nc3ncnc4sc5c(c34)CCN(C(=O)/C=C/CN3CCC[C@H](n4cccn4)C3)C5)cc2C)cn1 [Compound 112],EC50,< 100 nM
Cc1ccc(Oc2ccc(Nc3ncnc4sc5c(c34)CCN(C(=O)/C=C/CN3CCCC(c4nccs4)C3)C5)cc2C)cn1 (centres unmarked) [Compound 113],EC50,< 100 nM
Cc1ccc(Oc2ccc(Nc3ncnc4sc5c(c34)CCN(C(=O)/C=C/CN3CCC(O)C(C)(C)C3)C5)cc2C)cn1 (centres unmarked) [Compound 114],EC50,< 100 nM
Cc1ccc(Oc2ccc(Nc3ncnc4sc5c(c34)CCN(C(=O)/C=C/CN3CCCC34CCC4)C5)cc2C)cn1 [Compound 115],EC50,< 100 nM
Cc1ccc(Oc2ccc(Nc3ncnc4sc5c(c34)CCN(C(=O)/C=C/CN3CC(C)OC(C)C3C)C5)cc2C)cn1 (centres unmarked) [Compound 117],EC50,< 100 nM
Cc1ccc(Oc2ccc(Nc3ncnc4sc5c(c34)CCN(C(=O)/C=C/CN3CC4CC4(CO)C3)C5)cc2C)cn1 (centres unmarked) [Compound 118],EC50,< 100 nM
Cc1ccc(Oc2ccc(Nc3ncnc4sc5c(c34)CCN(C(=O)/C=C/CN3CCCCC3(C)CO)C5)cc2C)cn1 (centres unmarked) [Compound 119],EC50,< 100 nM
Cc1ccc(Oc2ccc(Nc3ncnc4sc5c(c34)CCN(C(=O)/C=C/CN3C[C@H]4C[C@@H]3CC4C#N)C5)cc2C)cn1 (some centres unmarked) [Compound 120],EC50,< 100 nM
Cc1ccc(Oc2ccc(Nc3ncnc4sc5c(c34)CCN(C(=O)/C=C/CN3CC(C)(C)OC(C)(C)C3)C5)cc2C)cn1 [Compound 121],EC50,< 100 nM
CC[C@H](NC/C=C/C(=O)N1CCc2c(sc3ncnc(Nc4ccc(Oc5ccc(C)nc5)c(C)c4)c23)C1)C(F)(F)F [Compound 122],EC50,< 100 nM
Cc1ccc(Oc2ccc(Nc3ncnc4sc5c(c34)CCN(C(=O)/C=C/CN3CC4(CCCC4)C3)C5)cc2C)cn1 [Compound 123],EC50,< 100 nM
Cc1ccc(Oc2ccc(Nc3ncnc4sc5c(c34)CCN(C(=O)/C=C/CN3CC[C@H](F)C3)C5)cc2C)cn1 [Compound 124],EC50,< 100 nM
"Cc1cc(Nc2ncnc3sc4c(c23)CCN(C(=O)/C=C/CN(C)C)C4)ccc1Oc1ccn2ccnc2c1 [Compound 126, (E)-4-(dimethylamino)-1-(4-((4-(imidazo[1,2-a]pyridin-7-yloxy)-3-methylphenyl)amino)-5,8-dihydropyrido[4′,3′:4,5]thieno[2,3-d]pyrimidin-7(6H)-yl)but-2-en-1-one]",EC50,< 100 nM
"Cc1nc2cc(Oc3ccc(Nc4ncnc5sc6c(c45)CCN(C(=O)/C=C/CN(C)C)C6)cc3C)ccn2n1 [Compound 127, (E)-4-(dimethylamino)-1-(4-((3-methyl-4-((2-methyl-[1,2,4]triazolo[1,5-a]pyridin-7-yl)oxy)phenyl)amino)-5,6-dihydropyrido[4′,3′:4,5]thieno[2,3-d]pyrimidin-7(8H)-yl)but-2-en-1-one]",EC50,< 100 nM
"COc1ccc(Oc2ccc(Nc3ncnc4sc5c(c34)CN(C(=O)/C=C/CN(C)C)C5)cc2C)cn1 [Compound 128, (E)-4-(dimethylamino)-1-(4-((4-((6-methoxypyridin-3-yl)oxy)-3-methylphenyl)amino)-5,7-dihydro-6H-pyrrolo[3′,4′:4,5]thieno[2,3-d]pyrimidin-6-yl)but-2-en-1-one]",EC50,< 100 nM
"Cc1ccc(Oc2ccc(Nc3ncnc4sc5c(c34)CN(C(=O)/C=C/CN(C)C)C5)cc2Cl)cn1 [Compound 129, (E)-1-(4-((3-Chloro-4-((6-methylpyridin-3-yl)oxy)phenyl)amino)-5H-pyrrolo[3′,4′:4,5]thieno[2,3-d]pyrimidin-6(7H)-yl)-4-(dimethylamino)but-2-en-1-one]",EC50,< 100 nM
"Cc1cc(Nc2ncnc3sc4c(c23)CN(C(=O)/C=C/CN(C)C)C4)ccc1Oc1ccn2ncnc2c1 [Compound 130, (E)-1-(4-((4-([1,2,4]Triazolo[1,5-a]pyridin-7-yloxy)-3-methylphenyl)amino)-5H-pyrrolo[3′,4′:4,5]thieno[2,3-d]pyrimidin-6(7H)-yl)-4-(dimethylamino)but-2-en-1-one]",EC50,< 100 nM
CCN(CC)C/C=C/C(=O)N1CCc2c(sc3ncnc(Nc4ccc(Oc5ccc(C)nc5)c(C)c4)c23)C1 [Compound 131],EC50,< 100 nM
Cc1ccc(Oc2ccc(Nc3ncnc4sc5c(c34)CCN(C(=O)/C=C/CN3CC[C@@H](CO)C3)C5)cc2C)cn1 [Compound 132],EC50,< 100 nM
Cc1ccc(Oc2ccc(Nc3ncnc4sc5c(c34)CCN(C(=O)/C=C/CN3CC[C@H](CO)C3)C5)cc2C)cn1 [Compound 133],EC50,< 100 nM
Cc1ccc(Oc2ccc(Nc3ncnc4sc5c(c34)CCN(C(=O)/C=C/CN3CC(CO)(CO)C3)C5)cc2C)cn1 [Compound 134],EC50,100 to 350 nM
Cc1ccc(Oc2ccc(Nc3ncnc4sc5c(c34)CCN(C(=O)/C=C/CN3CCC(CO)(CO)CC3)C5)cc2C)cn1 [Compound 135],EC50,100 to 350 nM
Cc1ccc(Oc2ccc(Nc3ncnc4sc5c(c34)CCN(C(=O)/C=C/CN3CCO[C@H](CO)C3)C5)cc2C)cn1 [Compound 136],EC50,< 100 nM
CCN(CC)C/C=C/C(=O)N1CCc2c(sc3ncnc(Nc4ccc(Oc5ccc(OC)nc5)c(C)c4)c23)C1 [Compound 137],EC50,< 100 nM
